This data set deals with granuloma-derived nucleated cells. The data set can be described thus: FACS analysis to determine cell viability (7-AAD) after staining with Cy7.5 NHS-ester. Type of data set: cell-based, mouse. The settings on record: granuloma-derived nucleated cells stained with 1 μg dye in 10 ml PBS, on ice 20 minutes. As for the experimental part: Cell Staining. 1 μg of Cy 7.5-NHS ester was mixed in 10 ml of PBS. The cells are resuspended in the buffer and left on ice for 20 minutes. Cells were washed three times in PBS and the cell pellet is placed under Optix scanner to confirm cell staining. The cells were resuspended in PBS and 100 μl of the cell suspension (containing 0.5×10^6 cells/100 μl) was injected via the tail vein. The stained cell pellet generated signal that was detected by the scanner.
FACS Analysis to Determine Cell Viability. Stained cells were washed three times in PBS and resuspended in 100 μl PBS. The cell suspension was incubated with 20 μl of 7-AAD for 20 minutes at room temperature. The cells are washed once in PBS and resuspended in 500 μl of PBS, then analyzed in FACS for viability.
FACS Analysis for Cellular Markers. The cells were stained with cell markers for leukocytes (CD45) and monocyte/macrophage (CD 11 b). Both CD11b and CD45 antibodies were purchased from Miltenyi Biotec and stained following vendors instructions. Thus, 10 μl of CD11b PE antibody and 10 μl CD45 FITC were incubated with 1×10^6 cells for 20 minutes. The cells were washed in PBS, resuspend in 0.5 mL PBS, and run on Flow Cytometer (Beckman Coulter FC500 MPL). The cells were viable after staining with Cye7.5 NHS-ester and 72% of cell population in the suspension were positive for CD45 and CD11b.

Take Cy7.5-NHS ester [Cye7.5 NHS-ester]: the “cell viability after staining” value was “viable”.

(Values after patent publication US7906106B2, “In vivo cell trafficking” (General Electric Company, priority 2007, dated 2011).)
